Data published in ChEMBL document CHEMBL1201862, “PubChem BioAssay data set” (2004).
Activity calls are given as the source filed them.

Legend:
[1] = target: Misshapen-like kinase 1 (Homo sapiens, UniProt Q8N4C8); assay type: functional;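 further: kinome panel screen with MINK as the panel member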
[2] = target: Serine/threonine-protein kinase 17A (Homo sapiens, UniProt Q9UEE5); assay type: functional
[3] = target: High affinity nerve growth factor receptor (Homo sapiens, UniProt P04629); assay type: functional;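 further: NTRK1 tested as one member of a kinome-wide profiling panel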
Sequence of High affinity nerve growth factor receptor (P04629 whole entry): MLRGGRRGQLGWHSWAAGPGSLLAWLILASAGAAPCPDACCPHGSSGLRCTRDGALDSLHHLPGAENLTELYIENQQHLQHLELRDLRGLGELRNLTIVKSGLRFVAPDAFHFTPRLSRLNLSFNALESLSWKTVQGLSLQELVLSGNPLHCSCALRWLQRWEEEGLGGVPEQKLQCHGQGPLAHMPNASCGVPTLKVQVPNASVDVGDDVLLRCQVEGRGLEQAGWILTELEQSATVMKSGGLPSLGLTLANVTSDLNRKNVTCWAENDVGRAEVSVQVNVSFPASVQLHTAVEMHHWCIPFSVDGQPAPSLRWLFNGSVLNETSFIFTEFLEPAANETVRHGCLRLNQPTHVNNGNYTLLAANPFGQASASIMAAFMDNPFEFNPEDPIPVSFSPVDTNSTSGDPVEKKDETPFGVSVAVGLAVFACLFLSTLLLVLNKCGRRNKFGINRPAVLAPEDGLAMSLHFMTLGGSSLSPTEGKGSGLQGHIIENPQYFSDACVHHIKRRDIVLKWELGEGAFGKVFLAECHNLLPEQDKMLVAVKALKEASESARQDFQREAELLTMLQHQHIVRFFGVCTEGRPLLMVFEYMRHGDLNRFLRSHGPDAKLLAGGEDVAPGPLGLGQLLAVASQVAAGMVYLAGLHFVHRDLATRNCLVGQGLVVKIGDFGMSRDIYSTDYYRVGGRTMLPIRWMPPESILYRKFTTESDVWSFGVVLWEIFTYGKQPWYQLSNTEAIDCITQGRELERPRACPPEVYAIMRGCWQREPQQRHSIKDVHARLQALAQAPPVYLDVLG

[4] = target: T1, Serine/threonine-protein phosphatase (Candida dubliniensis (strain CD36 / CBS 7987 / NCPF 3949 / NRRLY-17841) (Yeast), UniProt B9W6M3); assay: calcineurin pathway inhibitors in yeast reporter, dose response, S. cerevisiae, CDRE-lacZ, luminescence, secondary (AID 2388); assay type: functional, cell-based;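 further: yeast reporter cells carrying a calcineurin-responsive lacZ construct stimulated with calcium chloride; luminescent beta-galactosidase reporter signal in whole cells rather than isolated phosphatase activity; potency for inhibition where a drop in reporter signal means calcineurin blockade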
T1 sequence (B9W6M3 whole entry): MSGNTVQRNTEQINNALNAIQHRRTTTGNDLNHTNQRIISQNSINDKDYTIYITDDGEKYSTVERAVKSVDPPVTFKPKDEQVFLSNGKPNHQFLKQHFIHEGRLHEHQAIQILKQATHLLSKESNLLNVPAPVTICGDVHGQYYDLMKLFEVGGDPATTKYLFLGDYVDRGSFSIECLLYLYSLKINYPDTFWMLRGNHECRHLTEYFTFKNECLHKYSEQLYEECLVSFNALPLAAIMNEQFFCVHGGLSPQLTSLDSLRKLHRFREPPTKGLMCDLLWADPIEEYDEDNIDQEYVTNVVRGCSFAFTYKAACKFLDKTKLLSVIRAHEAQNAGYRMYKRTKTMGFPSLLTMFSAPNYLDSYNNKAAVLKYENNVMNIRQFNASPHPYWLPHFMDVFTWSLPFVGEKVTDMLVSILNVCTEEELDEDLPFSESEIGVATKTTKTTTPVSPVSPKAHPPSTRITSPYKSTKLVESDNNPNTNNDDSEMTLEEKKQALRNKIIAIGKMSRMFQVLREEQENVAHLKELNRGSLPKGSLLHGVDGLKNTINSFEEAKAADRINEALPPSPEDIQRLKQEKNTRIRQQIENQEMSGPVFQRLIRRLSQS

[5] = target: T2, Mannose-6-phosphate isomerase (Homo sapiens, UniProt P34949); assay: inhibitors of human PMI, primary screen, biochemical, fluorescence intensity, coupled assay (AID 1209)
T2 sequence (P34949 whole entry): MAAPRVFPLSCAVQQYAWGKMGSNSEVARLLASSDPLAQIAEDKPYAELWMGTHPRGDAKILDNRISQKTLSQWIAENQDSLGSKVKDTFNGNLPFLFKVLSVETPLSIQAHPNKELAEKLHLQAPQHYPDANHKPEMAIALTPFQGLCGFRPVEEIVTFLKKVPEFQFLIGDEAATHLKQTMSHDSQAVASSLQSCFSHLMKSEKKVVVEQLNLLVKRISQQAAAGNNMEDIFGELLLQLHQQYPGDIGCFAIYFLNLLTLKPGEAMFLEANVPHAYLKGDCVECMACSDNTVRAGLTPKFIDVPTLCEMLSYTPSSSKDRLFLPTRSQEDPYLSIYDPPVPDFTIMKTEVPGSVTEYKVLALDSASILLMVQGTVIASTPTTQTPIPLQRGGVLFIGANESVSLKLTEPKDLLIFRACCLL

[6] = target: Genome polyprotein (dengue virus type 2, UniProt P29990); assay: Dengue-2 NS5 methyltransferase inhibitors, primary screen, biochemical, confirmation dose response (AID 588689); assay type: functional
Sequence of Genome polyprotein (P29990 2492-3391 limits assumed): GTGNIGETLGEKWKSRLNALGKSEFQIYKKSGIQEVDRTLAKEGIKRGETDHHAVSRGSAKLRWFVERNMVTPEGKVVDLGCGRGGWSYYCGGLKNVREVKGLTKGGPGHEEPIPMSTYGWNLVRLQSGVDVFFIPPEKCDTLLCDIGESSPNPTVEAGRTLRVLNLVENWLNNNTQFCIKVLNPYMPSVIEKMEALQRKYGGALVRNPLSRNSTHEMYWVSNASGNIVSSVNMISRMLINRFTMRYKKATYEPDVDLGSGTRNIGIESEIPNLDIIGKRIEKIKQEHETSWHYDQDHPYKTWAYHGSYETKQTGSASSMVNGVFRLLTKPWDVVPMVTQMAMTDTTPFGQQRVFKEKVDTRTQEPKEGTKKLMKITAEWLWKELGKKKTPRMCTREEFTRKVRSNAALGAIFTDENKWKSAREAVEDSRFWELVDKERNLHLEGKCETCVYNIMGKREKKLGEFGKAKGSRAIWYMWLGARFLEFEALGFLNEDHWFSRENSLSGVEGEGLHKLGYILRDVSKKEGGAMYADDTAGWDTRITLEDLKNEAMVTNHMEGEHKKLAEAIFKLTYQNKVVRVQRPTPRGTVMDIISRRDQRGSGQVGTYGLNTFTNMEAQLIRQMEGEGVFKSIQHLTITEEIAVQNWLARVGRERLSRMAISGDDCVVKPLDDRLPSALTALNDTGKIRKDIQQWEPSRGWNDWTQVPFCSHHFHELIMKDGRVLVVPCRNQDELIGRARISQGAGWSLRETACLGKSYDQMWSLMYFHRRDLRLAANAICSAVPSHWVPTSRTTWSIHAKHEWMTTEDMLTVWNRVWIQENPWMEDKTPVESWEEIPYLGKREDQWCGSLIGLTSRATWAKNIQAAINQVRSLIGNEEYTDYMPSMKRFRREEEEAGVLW

[7] = target: T3, Bcl-2-like protein 10 (Homo sapiens, UniProt Q9HD36); assay: displacers of TR3 peptide from Bcl-B, primary screen, selectivity assay for Bfl-1 inhibitor project, biochemical, fluorescence polarization, FITC-TR3 peptide (AID 748);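 further: fluorescence polarization from a fluorescein-labelled TR3 peptide binding purified Bcl-B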
T3 sequence (Q9HD36 whole entry): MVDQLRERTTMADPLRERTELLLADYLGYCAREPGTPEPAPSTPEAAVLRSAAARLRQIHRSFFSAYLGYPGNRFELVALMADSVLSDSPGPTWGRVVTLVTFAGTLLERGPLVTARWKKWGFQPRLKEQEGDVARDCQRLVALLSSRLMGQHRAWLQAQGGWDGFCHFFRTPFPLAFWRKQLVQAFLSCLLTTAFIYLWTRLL

[8] = control 3'UTR Renilla luciferase suppression, dose response, counter-screen for Shn3 inhibitor project, cell-based, Clone20-Shn3RL, cherry-picked (AID 624133); assay type: functional
[9] = system: BJ; assay: cytotoxicity toward BJ-TERT fibroblasts, dose response, cell-based, RAS-independent, luminescence (AID 1933); assay type: functional; conditions: Homo sapiens
[10] = target: T4, Sentrin-specific protease 8 (Homo sapiens, UniProt Q96LD8); assay type: functional;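 further: luminescence read-out of SENP8 inhibition, dose-response confirmation following an ultra-high-throughput screen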
T4 sequence (Q96LD8 whole entry): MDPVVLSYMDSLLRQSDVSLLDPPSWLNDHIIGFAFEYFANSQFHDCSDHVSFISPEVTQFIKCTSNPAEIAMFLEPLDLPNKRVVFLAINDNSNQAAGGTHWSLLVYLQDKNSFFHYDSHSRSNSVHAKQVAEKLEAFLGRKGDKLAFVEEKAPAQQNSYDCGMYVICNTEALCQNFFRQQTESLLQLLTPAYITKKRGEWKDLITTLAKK

[11] = target: Serine/threonine-protein phosphatase (Homo sapiens, UniProt Q9BPW0); assay: PP5 phosphatase inhibitors, dose response, biochemical, fluorescence (AID 2395)
Sequence of Serine/threonine-protein phosphatase (Homo sapiens, UniProt Q9BPW0) (Q9BPW0 whole entry): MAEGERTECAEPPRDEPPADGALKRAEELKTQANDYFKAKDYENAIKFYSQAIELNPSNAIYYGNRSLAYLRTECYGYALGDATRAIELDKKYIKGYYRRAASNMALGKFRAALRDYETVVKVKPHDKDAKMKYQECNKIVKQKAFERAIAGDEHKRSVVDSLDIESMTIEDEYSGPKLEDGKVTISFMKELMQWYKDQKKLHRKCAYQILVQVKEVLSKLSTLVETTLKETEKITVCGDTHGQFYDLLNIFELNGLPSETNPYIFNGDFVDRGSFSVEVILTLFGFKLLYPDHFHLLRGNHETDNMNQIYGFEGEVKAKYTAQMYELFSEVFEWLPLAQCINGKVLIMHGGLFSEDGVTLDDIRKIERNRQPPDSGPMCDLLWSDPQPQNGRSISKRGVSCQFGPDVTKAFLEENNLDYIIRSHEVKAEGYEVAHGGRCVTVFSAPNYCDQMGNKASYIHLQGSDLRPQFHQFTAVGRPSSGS

Sequence of Misshapen-like kinase 1 (Q8N4C8 whole entry): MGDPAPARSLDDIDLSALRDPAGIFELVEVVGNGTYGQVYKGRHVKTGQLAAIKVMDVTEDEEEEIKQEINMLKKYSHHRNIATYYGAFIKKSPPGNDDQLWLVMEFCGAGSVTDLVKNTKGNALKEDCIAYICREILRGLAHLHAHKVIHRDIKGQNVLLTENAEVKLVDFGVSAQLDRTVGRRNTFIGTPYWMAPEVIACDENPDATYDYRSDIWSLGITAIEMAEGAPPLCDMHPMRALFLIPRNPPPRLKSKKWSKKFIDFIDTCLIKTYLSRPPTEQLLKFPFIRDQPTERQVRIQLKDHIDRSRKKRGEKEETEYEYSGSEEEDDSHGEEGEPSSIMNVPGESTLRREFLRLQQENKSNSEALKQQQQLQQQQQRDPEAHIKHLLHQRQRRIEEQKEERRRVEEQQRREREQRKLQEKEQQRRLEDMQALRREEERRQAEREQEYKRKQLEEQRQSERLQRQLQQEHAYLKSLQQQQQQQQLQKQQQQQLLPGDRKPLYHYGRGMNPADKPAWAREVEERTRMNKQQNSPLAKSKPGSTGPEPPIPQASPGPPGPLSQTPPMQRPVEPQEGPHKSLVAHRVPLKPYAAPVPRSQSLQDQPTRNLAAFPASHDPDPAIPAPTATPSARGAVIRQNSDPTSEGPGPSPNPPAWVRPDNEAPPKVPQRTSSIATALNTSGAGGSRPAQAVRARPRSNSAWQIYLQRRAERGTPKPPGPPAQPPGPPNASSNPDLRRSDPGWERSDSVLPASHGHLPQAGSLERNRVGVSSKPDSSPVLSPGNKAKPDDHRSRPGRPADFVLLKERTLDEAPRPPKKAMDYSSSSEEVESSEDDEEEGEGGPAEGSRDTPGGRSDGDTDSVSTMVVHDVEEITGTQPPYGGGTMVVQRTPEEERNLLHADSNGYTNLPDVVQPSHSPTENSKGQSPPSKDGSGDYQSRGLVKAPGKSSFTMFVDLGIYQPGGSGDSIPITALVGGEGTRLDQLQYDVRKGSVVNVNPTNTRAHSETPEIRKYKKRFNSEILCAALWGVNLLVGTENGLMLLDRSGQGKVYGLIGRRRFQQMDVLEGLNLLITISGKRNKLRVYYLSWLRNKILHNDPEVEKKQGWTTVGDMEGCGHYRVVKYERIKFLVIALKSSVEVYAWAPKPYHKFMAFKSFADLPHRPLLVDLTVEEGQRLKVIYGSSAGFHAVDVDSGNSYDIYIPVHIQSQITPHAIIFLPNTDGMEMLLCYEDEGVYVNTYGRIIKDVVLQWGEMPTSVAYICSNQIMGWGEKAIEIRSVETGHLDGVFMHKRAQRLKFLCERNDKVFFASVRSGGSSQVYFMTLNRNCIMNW
Sequence of Serine/threonine-protein kinase 17A (Q9UEE5 whole entry): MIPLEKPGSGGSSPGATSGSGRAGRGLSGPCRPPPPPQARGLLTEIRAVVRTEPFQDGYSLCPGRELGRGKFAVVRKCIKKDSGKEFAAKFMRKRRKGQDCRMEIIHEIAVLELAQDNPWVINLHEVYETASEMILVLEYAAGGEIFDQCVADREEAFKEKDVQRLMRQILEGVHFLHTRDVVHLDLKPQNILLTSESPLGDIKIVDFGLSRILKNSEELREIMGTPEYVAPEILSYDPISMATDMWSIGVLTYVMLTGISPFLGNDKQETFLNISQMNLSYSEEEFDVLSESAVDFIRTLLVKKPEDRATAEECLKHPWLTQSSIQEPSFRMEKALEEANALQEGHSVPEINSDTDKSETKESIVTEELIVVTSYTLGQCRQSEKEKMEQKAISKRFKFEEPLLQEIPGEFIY

## NC1CCC(Nc2nc(Cl)cc(-c3c[nH]c4ncccc34)n2)CC1 (stereo not drawn)
[1]
  Ki: 0.02 µM (active)
  pKi: 7.7
[2]
  Ki: 0.0316 µM (active)
  pKi: 7.5
[3]
  Ki: > 3.16 µM (inactive)

## CC(C)CC(=O)NC(c1cccs1)c1ccc2cccnc2c1O (stereo not drawn)
[4]
  EC50: > 180 µM (inactive)

## Cc1ccccc1-c1cc2c(nn1)-c1ccccc1C2=O
[5]
  IC50: > 50 µM (not active)

## CCOC(=O)c1ccc(NC2=CC(=O)C(=O)c3ccccc32)cc1
[6]
  IC50: > 100 µM (active)
[7]
  IC50: 60.7 µM (inactive)

## OC(CNCCC1C=Nc2ccccc21)Cn1c2ccc(Cl)cc2c2cc(Cl)ccc21 (stereo not drawn)
[8]
  AC50: 6.08 µM (active)
[9]
  EC50: 5.3 µM (inconclusive)

## COc1ccc(C(=O)c2nccc3cc(OC)c(OC)cc23)cc1OC
[10]
  IC50: 2.47 µM (active)
[11]
  IC50: 19.6 µM (not active)
